Test results: patent US20140200144A1, “TREATMENT OF CROPS WITH A LOWER ALKYL N[…] ALTER CELL CYCLE AND WATER REGULATION” (1,4 GROUP, INC., priority 2013, published 2014)

Experiments:
[1] = test system: sprouting root and tuber crops, bulb crops, ornamentals; assay: Effect on sprouting crops; type: in vivo
potato meristems = assay: 3H-thymidine incorporation into DNA of meristems from DMN-treated tubers; type: cell-based, potato (Russet Burbank); settings: for Thymidine incorporation (labeled thymidine taken up incorporated into DNA): meristems from tubers treated with DMN 3 days at 20° C.
Procedure: On the day of treatment, tubers were transferred from 3° to 20° C. and were immediately washed in running tap water. After drying at room temperature in the dark, the tubers were placed into 4 L airtight containers. A beaker containing about 5 g of activated charcoal was placed in the chamber containing the control tubers prior to sealing (Control). DMN (0.15 mL liquid) was placed on cotton wool in a beaker and sealed in the treatment chamber (DMN3 days). The chambers were incubated in the dark at 20° C. for three days. At this time tubers were removed and the lateral meristems were isolated using a curette with the aid of a dissecting microscope. Either used fresh (thymidine incorporation) or immediately frozen in liquid nitrogen and stored at −80° C., as previously described (Campbell et al., 1996). One group of DMN-treated tubers was incubated for a further two days in air (dark, 20° C.) prior to meristem isolation (DMN3 days+2). Samples were also collected from untreated non-dormant buds at day 0 immediately after removal from 3° C. storage; henceforth referred to as eco-dormant (Lang et al. 1987)
Freshly excised meristems were washed with deionized water and groups of 20 buds were incubated on 1 mL of buffer (10 mM Mes/KOH; pH 5.7) containing 0.9 μCi of ^3H-thymidine (60 μCi/μmole; American Radiolabeled Chemicals Inc., St. Louis, Mo.). The meristems were incubated on an oscillating shaker (100 rpm) at room temperature in the dark. After three hours, meristems were removed from the incubation media, washed extensively with deionized water followed by two washes with incubation buffer containing 5 mM unlabeled thymidine, blotted dry, frozen in liquid nitrogen, and stored at −80° C. To determine incorporation, the frozen meristems were homogenized in 1 mL ice-cold 10% (w/v) TCA. After standing on ice for 3-4 hours, the samples were vigorously mixed. An aliquot was removed and placed in a scintillation vial to determine total uptake. A second equal aliquot was removed and placed on a microfiber filter (GF/C; Whatman). […]

potato tubers [2] = settings: Beveridge et al. 1981; cited from earlier work
berries = settings: freshly harvested berries; copending application; cited from earlier work
ABA levels = settings: Campbell et al. 2010; cited from earlier work
[3] = test system: potato meristem transcripts; assay: QT-PCR analysis of potato meristem transcripts; type: cell-based, potato (Russet Burbank); settings: DMN for three days, vs control
Procedure: On the day of treatment, tubers were transferred from 3° to 20° C. and were immediately washed in running tap water. After drying at room temperature in the dark, the tubers were placed into 4 L airtight containers. A beaker containing about 5 g of activated charcoal was placed in the chamber containing the control tubers prior to sealing (Control). DMN (0.15 mL liquid) was placed on cotton wool in a beaker and sealed in the treatment chamber (DMN3 days). The chambers were incubated in the dark at 20° C. for three days. At this time tubers were removed and the lateral meristems were isolated using a curette with the aid of a dissecting microscope. […]
A set of transcripts was selected for further analysis to confirm the microarray data and to determine the possible cell cycle position of tubers treated with DMN. […] Therefore, primers were determined by isolating a longer DNA sequence from the DFCI-Potato Gene Index corresponding to the microarray oligonucleotide and searching that sequence for primers using the Applied Biosystems Primer Express 3.0 software (www.appliedbiosystems.com). cDNA template for QT-PCR was prepared from mRNA isolated from potato meristems treated with DMN for three days as described above. PCR reactions were run on a StepOne™ Real Time System and analyzed using Step One Software v2.0 (www.appliedbiosystems.com) to determine ΔΔCT values on a log10 scale. […]

[4] = test system: potato meristem transcripts; assay: Microarray transcriptional profiling (POCI 44K oligo array) of potato meristems; type: cell-based, potato (Russet Burbank)
Procedure: On the day of treatment, tubers were transferred from 3° to 20° C. and were immediately washed in running tap water. After drying at room temperature in the dark, the tubers were placed into 4 L airtight containers. A beaker containing about 5 g of activated charcoal was placed in the chamber containing the control tubers prior to sealing (Control). DMN (0.15 mL liquid) was placed on cotton wool in a beaker and sealed in the treatment chamber (DMN3 days). The chambers were incubated in the dark at 20° C. for three days. At this time tubers were removed and the lateral meristems were isolated using a curette with the aid of a dissecting microscope. […] One group of DMN-treated tubers was incubated for a further two days in air (dark, 20° C.) prior to meristem isolation (DMN3 days+2).
RNA was isolated from frozen meristems by grinding to a fine powder in a mortar and pestle followed by isolation and purification using a Ribopure Kit (www.ambio.com). RNA was quantified using a BioSpec nano and quality was assessed by gel electrophoresis and visualization of ribosomal RNA. Total RNA (500 ng) was denatured in the presence of a T7 promoter primer and cDNA was synthesized using reverse transcriptase. The cDNA was used as a template for in vitro transcription by synthesis with T7RNA polymerase, which amplified target material and incorporated cyanine 3-labeled CTP. The labeled cRNA was purified using spin columns and quantified using a spectrophotometer. […] Probe generation and hybridization to the array were conducted through a contract to Gene Logic (www.genelogic.com). Twelve samples were used to probe against the POCI array, three samples from eco-dormant meristems (harvested directly from 3° C. storage), three samples from meristems isolated from tubers treated with DMN for three days in a closed container, three samples treated with water for three days in a closed container, three samples treated with DMN for three days and then exposed to air for two days. The three samples for each treatment were biological replicates.
Analysis of the microarray was conducted in two stages; total array data was examined using a linear model and the software limma, and pathway analysis was conducted by linking the potato sequences to the Arabidopsis thaliana. […] The data was corrected for background and normalized between arrays using a loess method. […] The use of limma for analysis of oligo arrays was accomplished by analyzing data from a single emission channel.
The array data was transformed to log base 2 and normalized between arrays using default parameters in GeneMathsXT software package (www.applied-maths.com). […] Pathway Studio 8.0 (www.ariadnegenomics.com) was utilized to determine metabolic changes that were associated with DMN treated for three days compared to controls.

potato tubers [5] = settings: J. Zalewsky, personal communication; cited from earlier work
[6] = DMN three days vs three-day control

Cc1ccc(C)c2ccccc12 [DMN, 1,4-dimethylnaphthalene]
effect on sprouting root and tuber crops ([1]; beet, carrot, cassaca, dasheen (taro), ginger, ginseng, horseradish, parsnip, pototato, sweet potato, turnip, yam): effective | effect on sprouting ornamentals ([1]; flowering bulbs): effective | effect on sprouting bulb crops ([1]; garlic, leek, onion, shallot): effective | Thymidine incorporation (labeled thymidine taken up incorporated into DNA) (potato meristems; Run 1, control 14.3 ± 2.1%): 6.7 ± 0.4% | Thymidine incorporation (labeled thymidine taken up incorporated into DNA) (potato meristems; Run 2, control 12.5 ± 0.2%): 6.5 ± 1.0% | reduction in thymidine incorporation into DNA (potato meristems; non-dormant tuber meristems following DMN treatment, vs control): about 50% | premature sprouting of potato tubers (potato tubers [2]): shown to prevent premature sprouting | hydration and shelf life of berries (berries): maintain improved hydration | ABA levels over control tissues (ABA levels): did not result in an increase in ABA levels | transcripts for CDKB1, CYCD3, PCNA, and UTPase (G1/S-phase or early S-phase) [3]: decreased | transcripts for KRP1, KRP2, MYC2, WRKY, and CYCA3 [3]: elevated | expression of transcripts that encode cyclin or cyclin-like proteins [4, 6]: decreased expression | transcripts assigned to water regulation and responses to salt stress [4, 6]: increased | expression of the Cln1 homolog CYCA1 ([4]; DMN treatment): decrease | Nucleoside diphosphate kinase (NDPK) transcript ([4]; exposure to DMN): down regulated | turgidity and tuber fresh weight (potato tubers [5]): increase in turgidity and maintenance of tuber fresh weight
